Results on two molecules are retold here after patent US20240309066A1, “MEANS AND METHODS FOR THE TREATMENT OF CALCIUM CRYSTAL DEPOSITION DISEASES” (UNIVERSITEIT MAASTRICHT, priority 2021, published 2024).

A short description of test [1]: In vitro calcium phosphate precipitation assay. The format is biochemical. As to conditions: for Precipitation inhibition: absorption measurement before SEM processing. The protocol:
To evaluate the inhibitory capacity of the peptide according to SEQ ID NO: 1, we utilized a well-established in vitro calcium phosphate precipitation assay (17-19) as described in example 2.
Calcium precipitation assays were performed essentially as described before with minor adaptations (19). 2.4 mM ionic calcium (0.1M stock) was added to a 50 mM Tris/HCL buffer (pH 7.4) in 1.5 ml Eppendorf tubes. Peptide or bFetuin were added and incubated for 15 minutes at room temperature. Subsequently, 1.6 mM phosphate buffer (0.1M stock) was added and the mixture was incubated for 120 minutes at 37° C.
Data were normalized to the first positive control (normalized to 100%) in each experiment. As an internal reference for precipitation inhibition, we used 1 mg/ml, 0.5 mg/ml and 0.25 mg/ml bovine Fetuin (bFetuin, Sigma-Aldrich, #F2379) in each experiment. After 2 hours, samples were transferred to cuvettes (1.0 ml reactions) and absorbance was measured at A620 in a plate reader with a plate reader (Biorad). Each condition consisted of three biological replicates.

A short description of test [2]: Total calcium, phosphate and protein measurements in pellets of in vitro precipitates. In kind it is biochemical. To be noted: 24 hours; control 14%. The protocol:
To test this, particles were allowed to form for 2 or 24 hours in the presence or absence (control) of bFetuin or the peptide according to SEQ ID NO: 1. and subsequently harvested by centrifugation, washed and dissolved in acid, followed by total calcium, phosphate and protein measurements in the pellet and the supernatant.
Quantification of deposited calcium was carried out using a calcium determination kit (Randox, London, United Kingdom) according to the manufacturer's instruction, after hydrolysis of mineral deposits in 0.1M HCl. Calcium measurements were normalized to protein content using micro DC Protein Assay (Termo Scientifc, Bleiswijk, the Netherlands). To be able to measure protein content, an equal amount of 0.1M NaOH was used to neutralize the acid and 0.1% SDS (final concentration) was added to lyse cells in the cellular calcification assays.
Quantification of deposited phosphate was carried out using a phosphate colorimetric assay (Sigma, MK030) according to manufacturer's instruction after solubilisation of precipitates in 0.1M HCL.

Test [3] has as its system Human articular chondrocytes (HACs). The test can be described thus: ATP-induced human articular chondrocyte calcification model. To be noted: 7 days, 1 mM ATP, 20 μM peptide, vs control with ATP. The format is cell-based. The protocol:
(§1) FIG. 3: Inhibition of cellular calcification of human articular chondrocytes, vascular smooth muscle cells and bone marrow stromal cells by the peptide according to SEQ ID NO: 1. Representative phase-contrast microscopy images of in vivo cell assays are shown. • A) Human articular chondrocytes (HACs) were stimulated for 7 days with 1 mM ATP and with or without 20 μM of the peptide. Results were obtained from three chondrocyte donors with three biological replicates each. • B) Vascular smooth muscle cells (VSMC) were stimulated for 7 days with 4.5 mM ionic calcium in the presence or absence of 20 μM of peptide. Results were obtained from three VSMC donors with three biological replicates each. • C) BMSCs were differentiated for 21 days in osteogenic differentiation medium containing beta-glycerophosphate (BGP) in the pre- or absence of 2.1 μM of peptide. BMSC; one donor with four biological replicates was used. • Left panels: phase-contrast images were obtained at the final day of each experiment. […] Scale bars indicate 200 μm. • Right panels: quantification of total calcium precipitation per well measured with the Randox total calcium assay and normalized to total protein. […]
(§2) Quantification of deposited calcium was carried out using a calcium determination kit (Randox, London, United Kingdom) according to the manufacturer's instruction, after hydrolysis of mineral deposits in 0.1M HCl. […]

The subject of test [4] is Vascular smooth muscle cells (VSMC). The test can be described thus: Calcium-induced vascular smooth muscle cell calcification model. In kind it is cell-based, human. To be noted: 7 days, 4.5 mM ionic calcium, 20 μM peptide. The procedure: as §1, with “peptide.” for “peptide. Results were obtained from three VSMC donors with three biological replicates each. • C) BMSCs were differentiated for 21 days in osteogenic differentiation medium containing beta-glycerophosphate (BGP) in the pre- or absence of 2.1 μM of peptide. BMSC; one donor with four biological replicates was used. • Left panels: phase-contrast images were obtained at the final day of each experiment.”
as §2
Human primary smooth muscle cells (VSMCs) were derived from tissue explants from patients undergoing surgery. […] Success of the isolation was determined by immunofluorescence staining for positive expression of alpha-smooth muscle actin (αSMA), smooth muscle protein 22-alpha (SM22α), phosphorylated myosin light chain 2 (pMLC) and absence of S100 C Calcium Binding Protein 4 (S100A4). […]

Test [5] concerns Bone marrow derived stromal cells (BMSCs). The test can be described thus: Beta-glycerophosphate-induced BMSC osteogenic differentiation model. To be noted: 21 days osteogenic differentiation medium with BGP, 2.1 μM peptide. In kind it is cell-based, human. The protocol: as §1, §2
The test system of test [6] is rat osteoarthritis model. The test can be described thus: Rat osteoarthritis model (medial meniscal tear, collateral ligament transection). In kind it is in vivo, Lewis rats. The protocol:
FIG. 4: Intra-articular injection of the peptide ameliorates cartilage histopathology and improves animal mobility in a rat osteoarthritis model. Osteoarthritis was induced by introducing a surgical tear of the medial meniscus and transection of the collateral ligament (N=40). Bi-weekly intra-articular injections of 50 μl peptide with a concentration of 20 μM or 50 μl vehicle (0.9% NaCl) were performed (N=20 per group). Necropsy was performed at day 28, followed by histological analyses according to the OARSI scoring system.
• A) Representative toluidine blue stained tissue sections from the best, average and worst histological appearance. Cartilage tissue is stained in dark blue. • B) The OARSI score was obtained by multiplying grade and stage of cartilage damage per animal by two blinded observers. Statistical comparison was done with a two-tailed t-test. *=p. value<0.05. • C) Gait analyses score at day 20 of the experiment. Four measurements per animal were performed and each dot represents the average of one animal in the graph. Statistical significance between groups was determined with a Mann-Whitney U test. *=p. value<0.05.
We also evaluated the effect of bi-weekly intra-articular injection of the peptide in a rat osteoarthritis model (FIG. 4). Osteoarthritis was induced with a surgical tear of the medial meniscus and transection of the collateral ligament (N=40). […]

[ ]: non-standard residue; d: D form.

As for “peptide according to SEQ ID NO: 1: circular polypeptide of 30 D-amino acids LIYRQPNCDDPETEEAALVAIDYIAPHGPG, D-Leucine at position 1 linked to D-Glycine at position 30 (cyclo([dL][dI][dY][dR][dQ][dP][dN][dC][dD][dD][dP][dE][dT][dE][dE][dA][dA][dL][dV][dA][dI][dD][dY][dI][dA][dP][dH]G[dP]G); SMILES CC[C@@H](C)[C@H]1NC(=O)[C@@H](C)NC(=O)[C@@H](C(C)C)NC(=O)[C@@H](CC(C)C)NC(=O)[C@@H](C)NC(=O)[C@@H](C)NC(=O)[C@@H](CCC(=O)O)NC(=O)[C@@H](CCC(=O)O)NC(=O)[C@@H]([C@H](C)O)NC(=O)[C@@H](CCC(=O)O)NC(=O)[C@H]2CCCN2C(=O)[C@@H](CC(=O)O)NC(=O)[C@@H](CC(=O)O)NC(=O)[C@@H](CS)NC(=O)[C@@H](CC(N)=O)NC(=O)[C@H]2CCCN2C(=O)[C@@H](CCC(N)=O)NC(=O)[C@@H](CCCNC(=N)N)NC(=O)[C@@H](Cc2ccc(O)cc2)NC(=O)[C@@H]([C@H](C)CC)NC(=O)[C@@H](CC(C)C)NC(=O)CNC(=O)[C@H]2CCCN2C(=O)CNC(=O)[C@@H](Cc2c[nH]cn2)NC(=O)[C@H]2CCCN2C(=O)[C@@H](C)NC(=O)[C@@H]([C@H](C)CC)NC(=O)[C@@H](Cc2ccc(O)cc2)NC(=O)[C@@H](CC(=O)O)NC1=O; listed as Homo Sapiens)”, in test [1] (20 μM peptide, 2 hours), the Precipitation inhibition is on record as about 50%. Besides, in test [1] (compared with bFetuin), the “efficiency of inhibition of in vitro calcium phosphate precipitation, comparison” value is given as “more efficiently than bFetuin”. The “concentration range down to which activity remained” value in test [1] (dilution series in steps of 10, 2 hours) is reported as “remained active until the attomolar concentration range”. Further, in test [1] (dilution series, 2 hours), the “concentration able to statistically significantly inhibit precipitation compared to control” value is 20.6 aM and the “concentration not able to statistically significantly inhibit precipitation” value was determined as 2.6 aM. Moreover, the “phosphate content in pellet” value in test [2] is on record as 9%. In addition, in test [3], the inhibition of calcification is 22-33%. Also, the inhibition of calcification in test [4] is 58-61%. Besides, in test [5], the “inhibition of calcium precipitation” value is 81%. The “reduction of histopathological OA score (OARSI)” value in test [6] (day 28 post-surgery, bi-weekly intra-articular 50 μl of 20 μM, vs vehicle) was found to be 38%. The “animals having a normal gait” value in test [6] (gait analysis day 20, bi-weekly intra-articular 50 μl of 20 μM, vehicle 5/20) is listed as 16/20.

B1: bFetuin: bovine Fetuin (Sigma-Aldrich, #F2379), positive control for precipitation inhibition (protein, UniProt Q58D62 19-387, looked up)
Fetuin-B: TSPPQPAARPSSLLSLDCNSSYVLDIANDILQDINRDRKDGYVLSLNRVSDAREHRQEAGLGSLFYFTLDVLETGCHVLSRTSWKNCEVRIFHESVYGQCKAIFYINKEKRIFYLPAYNCTLRPVSQSAIIMTCPDCPSTSPYDLSNPRFMETATESLAKYNSESPSKQYSLVKITKTSSQWVFGPAYFVEYLIKESPCVKSEGSSCALESPGSVPVGICHGSLGEPQGNQGKIISVTCSFFNSQAPTPRGENATVNQRPANPSKTEELQQQNTAPTNSPTKAVPKGSVQYLPDWDKKREGSQEKDPVETFPVQLDLTTNPQGESLDVSFLFQEPMEEKVVVLPFPSKEQRSAECPGPAQKGYPFILPS
In the case of B1, in test [1] (0.5 mg/ml bFetuin, 2 hours), the Precipitation inhibition is recorded as about 50%. For the same molecule, in test [1] (1 mg/ml (20.6 μM), positive control), the inhibition of precipitation result is on record as “completely inhibit precipitation”. The “concentration at which the inhibitory effect is lost” value in test [1] (dilution series, 2 hours, molar equivalent of μg/ml) lay in the range of 20.6 to 200.6 nM. Also, the “phosphate content in pellet” value in test [2] came out at 9%.
